In US6506734B1, “20(S) camptothecin glycoconjugates” (Bayer Aktiengesellschaft, priority 1997, dated 2003):
“And” between values parts separate entries of the source, which are not always exact repeats. Equal entries are not always repeated. Structures can show the parent of a compound that is named as a salt. Where two headings read alike, the source gives them in different places.

Columns and labels:
[1] = system: B16F10; experiment: Growth inhibition test (MTT) for cytotoxic properties, B16F10; conditions: read-out: IC50/nM B16F10
Description: (§1) The human large intestine cell lines SW 480 and HT 29 (ATCC No. CCL 228 and HBT 38) and the mouse melanoma cell line B16F10 (CRL 6475) were grown in Roux dishes in RPMI 1640 medium with addition of 10% FCS. They were then trypsinized and taken up in RPMI plus 10% FCS to a cell count of 50,000 cells/ml for SW 480 and HT 29 and 20,000 cells for B16F10. 100 μl of cell suspension/well were added to a 96 microwell plate and incubated for 1 day at 37° C. in a CO2 incubator. A further 100 μl of RPMI medium and 1 μl of DMSO containing the test substances were then added. The growth was checked after day 6. To do this, 25 μl of MTT solution (3-(4,5-dimethylthiazol-2-yl)-2,5-diphenyltetrazolium bromide) having a starting concentration of 5 mg/ml of H2O were added to each microwell. Incubation was carried out for 5 hours in a CO2 incubator at 37° C. The medium was then aspirated and 100 μl of i-propanol/well were added. After shaking for 30 min with 100 μl of H2O, the extinction was measured at 595 nm using a multiplate reader (Bio.) 3550 UV.

[2] = system: SW 480; experiment: Growth inhibition test (MTT) for cytotoxic properties, SW 480; conditions: read-out: IC50/nM SW 480
Description: as §1

[3] = system: HT 29; experiment: Growth inhibition test (MTT) for cytotoxic properties, HT 29; conditions: read-out: IC50/nM HT 29
Description: as §1

[4] = system: large-cell human lung tumour xenograft LXFL 529; experiment: In vivo inhibition of tumour growth in the nude mouse model; conditions: for Survival time: LXFL 529 nude mice, individual animals; for therapeutic efficacy (tumour remission): maximum tolerable dose (MTD) and ½ MTD, LXFL 529
Description: For all in vivo experiments for investigation of the inhibition of tumour growth, athymic nude mice (NMRI nu/nu strain) were used. The selected large-cell lung carcinoma LXFL 529 was grown by serial passage in nude mice. The human origin of the tumour was confirmed by isoenzymatic and immunohistochemical methods.
The tumour was implanted subcutaneously into both flanks of small nu/nu nude mice 6 to 8 weeks old. […] The mice were assigned to the treatment group and the control group (5 mice per group with 8-10 assessable tumours) by randomization.
The size of the tumours was measured in two dimensions by means of a slide gauge. The tumour volume, which correlated well with the cell count, was then used for all evaluations. The volume was calculated according to the formula “length×breadth×breadth/2” ([a×b^2]/2, a and b represent two diameters at right angles).
The values of the relative tumour volume (RTV) were calculated for each individual tumour by dividing the tumour size on day X with the tumour size on day 0 (at the time of randomization). The mean values of the RTV were then used for the further evaluation.
The inhibition of the tumour volume (relative tumour volume of the test group/control group×100, T/C in %) was the final measured value.
The administration of the compounds was carried out intravenously (i.v.), for example on day 0, 1 and 2 after randomization, the total dose per day being split over 2 administrations.

[5] = system: mouse bone marrow stem cells; experiment: Inhibition of the CSF-induced proliferation of mouse bone marrow stem cells; conditions: recombinant murine GM-CSF, 7 days, colony count
Description: Bone marrow cells were washed out of mice femurs. 10^5 cells were incubated at 37° C. and 7% CO2 in McCoy 5A medium (0.3% agar) together with recombinant murine GM-CSF (Genzyme; stem cell colony formation) and the substances (10^−4 to 100 μg/ml). 7 days later, the colonies (<50 cells) and clusters (17-50 cells) were counted.

[6] = 16 mg/kg/day i.v., LXFL 529, optimum on day 28
[7] = B16F10 cells, MTT, growth checked after day 6
[8] = SW 480 cells, MTT, growth checked after day 6
[9] = HT 29 cells, MTT, growth checked after day 6

SMILES | IC50 ([1]; Mus musculus, B16-F10, 144 h) | IC50 ([2]; Homo sapiens, SW480, 144 h) | IC50 ([3]; Homo sapiens, HT-29, 144 h) | further results
CC[C@@]1(OC(=O)[C@@H](CC(C)C)NC(=O)[C@H](CCCN)NC(=S)Nc2ccc(OC3O[C@@H](C)[C@@H](O)[C@@H](OC)[C@@H]3O)cc2)C(=O)OCc2c1cc1n(c2=O)Cc2cc3ccccc3nc2-1 (stereo partly drawn) [Example 4, 20(S)-20-O-{N^α-[O-(3-O-Methyl-β-L-fucopyranosyl)-4-hydroxy-phenylamino-thiocarbonyl]-L-ornithyl-D-leucyl}-camptothecin, hydrochloride] | 500 nM | 100 nM | 20 nM | –
CC[C@@]1(OC(=O)[C@H](CC(C)C)NC(=O)[C@H](CCCNC(=N)N)NC(=S)Nc2ccc(OC3O[C@@H](C)[C@@H](O)[C@@H](OC)[C@@H]3O)cc2)C(=O)OCc2c1cc1n(c2=O)Cc2cc3ccccc3nc2-1 (stereo partly drawn) [Example 10, 20(S)-20-O-{N^α-[O-(3-O-Methyl-β-L-fucopyranosyl)-4-hydrdxy-phenylamino-thiocarbonyl]-L-arginyl-L-leucyl}-camptothecin] | 300 nM | 100 nM | 50 nM | –
CCC1(OC(=O)C(NC(=O)[C@H](Cc2c[nH]cn2)NC(=S)Nc2ccc(OC3OC(C)C(O)C(OC)C3O)cc2)C(C)C)C(=O)OCc2c1cc1n(c2=O)Cc2cc3ccccc3nc2-1.Cl (stereo partly drawn) [Example 2, 20(S)-20-O-{N-[O-(3-O-Methyl-β-L-fucopyranosyl)-4-hydroxy-phenylamino-thiocarbonyl]-L-histidyl-L/D-valyl}-camptothecin, hydrochloride] | 300 nM | 100 nM | 40 nM | opt. T/C [4, 6]: 3.3%; Survival time ([4]; 16 mg/kg/day i.v.): >28 days; Relative body weight on day 7 [% of day 0] ([4]; 16 mg/kg/day i.v.): 103 % of day 0; opt. T/C ([4]; 32 mg/kg/day i.v., LXFL 529, optimum on day 21): 0%; Survival time ([4]; 32 mg/kg/day i.v., hydrochloride): >28 days (3×) and 20 days and 1 days; Relative body weight on day 7 [% of day 0] ([4]; 32 mg/kg/day i.v.): 98 % of day 0; therapeutic efficacy (tumour remission) [4]: complete to marked tumour remission
CC[C@@]1(OC(=O)C(CC(C)C)NC(=O)[C@H](CCCCN)NC(=S)Nc2ccc(OC3O[C@@H](C)[C@@H](O)[C@@H](OC)[C@@H]3O)cc2)C(=O)OCc2c1cc1n(c2=O)Cc2cc3ccccc3nc2-1 (stereo partly drawn) [Example 1, 20(S)-20-O-{N^α-[O-(3-O-Methyl-β-L-fucopyranosyl)-4-hydroxy-phenylamino-thiocarbonyl]-L-lysyl-L/D-leucyl}-camptothecin, hydrochloride] | 200 nM | 70 nM | 40 nM | opt. T/C ([4]; 8 mg/kg/day i.v., LXFL 529, optimum on day 14): 0%; Survival time ([4]; 8 mg/kg/day i.v., hydrochloride): 0 days and >28 days (4×); Relative body weight on day 7 [% of day 0] ([4]; 8 mg/kg/day i.v.): 95 % of day 0; opt. T/C [4, 6]: 0%; Survival time ([4]; 16 mg/kg/day i.v.): >28 days; Relative body weight on day 7 [% of day 0] ([4]; 16 mg/kg/day i.v.): 95 % of day 0; tumour remission (FIG. 1) ([4]; dose range from 16 to 8 mg/kg, therapy schedule day 1-3 i.v., further experiment): long-lasting complete remission; therapeutic efficacy (tumour remission) [4]: complete to marked tumour remission
CC[C@@]1(OC(=O)[C@H](CC(C)C)NC(=O)[C@H](CCCCN)NC(=S)Nc2ccc(OC3O[C@@H](C)[C@@H](O)[C@@H](OC)[C@@H]3O)cc2)C(=O)OCc2c1cc1n(c2=O)Cc2cc3ccccc3nc2-1 (stereo partly drawn) [Example 7, 20(S)-20-O-{N^α-O-(3-O-Methyl-β-L-fucopyranosyl)-4-hydroxy-phenylamino-thiocarbonyl]-L-lysyl-L-leucyl}-camptothecin, hydrochloride] | 20 nM | 80 nM | 30 nM | –
CC[C@@]1(OC(=O)[C@@H](CC(C)C)NC(=O)[C@@H](CCCCN)NC(=S)Nc2ccc(OC3O[C@@H](C)[C@@H](O)[C@@H](OC)[C@@H]3O)cc2)C(=O)OCc2c1cc1n(c2=O)Cc2cc3ccccc3nc2-1 (stereo partly drawn) [Example 3, 20(S)-20-O-{N^α-[O-(3-O-Methyl-β-L-fucopyranosyl)-4-hydroxy-phenylamino-thiocarbonyl]-D-lysyl-D-leucyl}-camptothecin, hydrochloride] | 500 nM | 100 nM | 20 nM | –
CC[C@@]1(OC(=O)[C@@H](CC(C)C)NC(=O)[C@H](CCCCN)NC(=S)Nc2ccc(OC3O[C@@H](C)[C@@H](O)[C@@H](OC)[C@@H]3O)cc2)C(=O)OCc2c1cc1n(c2=O)Cc2cc3ccccc3nc2-1 (stereo partly drawn) [Example 6, 20(S)-20-O-{N^α-[O-(3-O-Methyl-β-L-fuopyranosyl)-4-hydroxy-phenylamino-thiocarbonyl]-L-lysyl-D-leucyl}-camptothecin, hydrochloride] | 300 nM | 60 nM | 30 nM | –
CC[C@@]1(OC(=O)[C@@H](NC(=O)[C@H](CCCCN)NC(=S)Nc2ccc(OC3O[C@@H](C)[C@@H](O)[C@@H](OC)[C@@H]3O)cc2)C(C)C)C(=O)OCc2c1cc1n(c2=O)Cc2cc3ccccc3nc2-1 (stereo partly drawn) [Example 8, 20(S)-20-O-{N^α-[-(3-O-Methyl-β-L-fucopyranosyl)-4-hydroxy-phenylamino-thiocarbonyl]-L-lysyl-L-valyl}-camptothecin, hydrochloride] | 800 nM | 200 nM | 100 nM | –
CC[C@@]1(O)C(=O)OCc2c1cc1n(c2=O)Cc2cc3ccccc3nc2-1 [20(S)-Camptothecin, reference compound] | – | – | – | IC50 [1, 7]: 20 nM; IC50 [2, 8]: 10 nM; IC50 [3, 9]: 5 nM; Inhibition of the CSF-induced proliferation of mouse bone marrow stem cells IC50 [5]: 0.05 ng/mL
CC[C@@]1(OC(=O)[C@@H](CC(C)C)NC(=O)[C@H](CCCNC(=N)N)NC(=S)Nc2ccc(OC3O[C@@H](C)[C@@H](O)[C@@H](OC)[C@@H]3O)cc2)C(=O)OCc2c1cc1n(c2=O)Cc2cc3ccccc3nc2-1 (stereo partly drawn) [Example 5, 20(S)-20-O-{N^α-[O-(3-O-Methyl-β-L-fucopyranosyl)-4-hydroxy-phenylamino-thiocarbonyl]-L-arginyl-D-leucyl}-camptothecin] | 200 nM | 80 nM | 50 nM | –
CC[C@@]1(OC(=O)[C@@H](NC(=O)[C@H](Cc2cnc[nH]2)NC(=S)Nc2ccc(O[C@H]3O[C@@H](C)[C@@H](O)[C@@H](OC)[C@@H]3O)cc2)C(C)C)C(=O)OCc2c1cc1n(c2=O)Cc2cc3ccccc3nc2-1.Cl [Example 9, 20(S)-20-O-{N^α-[O-(3-O-Methyl-β-L-fucopyranosyl)-4-hydroxy-phenylamino-thiocarbonyl]-L-histidyl-L-valyl}-camptothecin, hydrochloride] | – | – | – | IC50 [1, 7]: 400 nM; IC50 [2, 8]: 200 nM; IC50 [3, 9]: 70 nM; Inhibition of the CSF-induced proliferation of mouse bone marrow stem cells IC50 [5]: 15 ng/mL
